Measured values as given in article PMC10349806 (Nature Communications, 2023).
Residue numbers refer to the chain shown, from its start. “And” between values parts separate entries of the source, which are not always exact repeats. Equal entries are not always repeated.

Columns and labels:
[1] = molecular target: T1, PfCRT variant E54A (Plasmodium falciparum, UniProt Q9N623, A220S/E54A/I356T/K76T/M74I/N326S/N75E/Q271E/R371I); experiment: CQ uptake assay, oocytes expressing E54A; format: cell-based
T1 sequence (Q9N623 1-424 E54A/M74I/N75E/K76T/A220S/Q271E/N326S/I356T/R371I): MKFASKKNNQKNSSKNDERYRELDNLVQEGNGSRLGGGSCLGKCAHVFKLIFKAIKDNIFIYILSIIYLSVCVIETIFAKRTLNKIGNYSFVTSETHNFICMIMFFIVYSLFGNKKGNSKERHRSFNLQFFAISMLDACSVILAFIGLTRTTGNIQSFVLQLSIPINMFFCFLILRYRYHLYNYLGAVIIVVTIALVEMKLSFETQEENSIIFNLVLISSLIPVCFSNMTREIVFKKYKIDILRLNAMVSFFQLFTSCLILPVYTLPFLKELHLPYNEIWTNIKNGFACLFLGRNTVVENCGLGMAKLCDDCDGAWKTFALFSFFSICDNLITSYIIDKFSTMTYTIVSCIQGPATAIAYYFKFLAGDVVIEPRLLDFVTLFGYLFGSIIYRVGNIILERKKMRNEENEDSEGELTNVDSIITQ
Procedure: (§1) Site-directed mutagenesis of PfCRT^Dd2 was performed as described using the megaprimer method with overlap extension[21],[54]. The primer pairs used are listed in Supplementary Table 6. Please note that a codon-optimized and oocyte-adapted version of PfCRT^Dd2 was used[22] (Supplementary Fig. 16). The resulting DNA fragment was cloned into the SP64T expression vector and verified by sequencing.
Oocytes were obtained as described previously. Briefly, adult (>2 years old) female X. laevis frogs (NASCO) were anesthetized in a cooled solution of ethyl 3-amino benzoate methanesulfonate (0.1%, w/v), followed by a surgical removal of parts of the ovary. The ovary lobes were carefully dissected and small pieces of oocytes were incubated in Ca^2+-free ND96 buffer (96 mM NaCl, 2 mM KCl, 1 mM MgCl2 buffered with 5 mM HEPES/NaOH, pH 7.5) supplemented with collagenase D (0.1%, w/v; Roche), BSA (0.5%, w/v), and 9 mm Na2HPO4 at 18 °C for 14-16 h while gentle shaking. After incubation, the oocytes were carefully washed several times with ND96 buffer (96 mM NaCl, 2 mM KCl, 1.8 mM CaCl2, 1 mM MgCl2 buffered with 5 mM HEPES/NaOH, pH 7.5) supplemented with 100 mg l^−1 gentamycin). Defolliculated and healthy-looking stage V-VI oocytes were manually selected for RNA microinjection. The RNA was generated as following: The codon-optimized sequences of PfCRT variants were cloned into the pSP64T expression vector. After vector linearization using the restriction endonucleases BamHI or SalI (New England Biolabs), transcription was performed using the in vitro SP6 mMessage mMachine Kit (Ambion)[34]. The obtained RNA was kept at −80 °C and diluted with nuclease-free water to a concentration of 0.6 μg μl^−1. […]
Drug uptake assays were performed as described previously[21],[22],[24],[34]. […] The radioactivity of each sample was measured using a liquid scintillation analyzer Tri-Carb 4910 TR (PerkinElmer). Oocytes that were injected with water instead of RNA were analyzed in parallel, representing the uptake of a drug by diffusion and/or endogenous permeation pathways. […]

[2] = molecular target: T2, PfCRT variant D410A (Plasmodium falciparum, UniProt Q9N623, A220S/D410A/I356T/K76T/M74I/N326S/N75E/Q271E/R371I); experiment: CQ uptake assay, oocytes expressing D410A; format: cell-based
T2 sequence (Q9N623 1-424 M74I/N75E/K76T/A220S/Q271E/N326S/I356T/R371I/D410A): T1 sequence (Q9N623 1-424 E54A/M74I/N75E/K76T/A220S/Q271E/N326S/I356T/R371I) with A54E, D410A
Procedure: as §1
Oocytes were obtained as described previously. Briefly, adult (>2 years old) female X. laevis frogs (NASCO) were anesthetized in a cooled solution of ethyl 3-amino benzoate methanesulfonate (0.1%, w/v), followed by a surgical removal of parts of the ovary. The ovary lobes were carefully dissected and small pieces of oocytes were incubated in Ca^2+-free ND96 buffer (96 mM NaCl, 2 mM KCl, 1 mM MgCl2 buffered with 5 mM HEPES/NaOH, pH 7.5) supplemented with collagenase D (0.1%, w/v; Roche), BSA (0.5%, w/v), and 9 mm Na2HPO4 at 18 °C for 14-16 h while gentle shaking. After incubation, the oocytes were carefully washed several times with ND96 buffer (96 mM NaCl, 2 mM KCl, 1.8 mM CaCl2, 1 mM MgCl2 buffered with 5 mM HEPES/NaOH, pH 7.5) supplemented with 100 mg l^−1 gentamycin). Defolliculated and healthy-looking stage V-VI oocytes were manually selected for RNA microinjection. The RNA was generated as following: The codon-optimized sequences of PfCRT variants were cloned into the pSP64T expression vector. After vector linearization using the restriction endonucleases BamHI or SalI (New England Biolabs), transcription was performed using the in vitro SP6 mMessage mMachine Kit (Ambion)[34]. The obtained RNA was kept at −80 °C and diluted with nuclease-free water to a concentration of 0.6 μg μl^−1. Precision-bore glass capillary tubes (3.5-inch glass capillaries; Drummond Scientific Co.) were pulled on a vertical puller (P-87 Flaming/Brown micropipette puller, Sutter Instrument Co.), graduated, and placed on a microinjector (Nanoject II Auto-Nanoliter Injector, Drummond Scientific Co.). 50 nl of nuclease-free water alone (control oocytes) or 50 nl of 0.6 μg μl^−1 RNA were injected under stereomicroscopic control. Injected oocytes were incubated for 46–72 h at 18 °C with twice-daily buffer changes before usage in experiments.
Drug uptake assays were performed as described previously[21],[22],[24],[34]. […] The direction of radio-labeled drug transport is here from the mostly acidic extracellular solution (pH 4.5 or 6.0, as indicated) into the oocyte cytosol (pH ∼ 7.2), which corresponds to the efflux of drug from the acidic digestive vacuole (pH 5.2) into the parasite cytoplasm (pH 7.2). The topology of PfCRT in the oolemma is such that both the N- and C-terminus face the extracellular milieu[3],[22]. In the parasite, the N- and C-terminus face the lumen of the digestive vacuole. CQ uptake kinetics were performed by incubating oocytes in ND96 buffer adjusted to a pH of 4.5, 5.0, 5.5, or 6.0 and supplemented with 50 nM [^3H]CQ and one of 7 different CQ concentrations (10 µM, 50 µM, 100 µM, 200 µM, 300 µM, 400 µM, 500 µM CQ). The reaction was stopped at the 60 min time point, which is in the linear uptake range[22],[34] (Supplementary Fig. 17). For determination of the amount of drug uptake for each oocyte, the reaction medium was removed and the oocytes were washed three times with 2 ml of ice-cold ND96 buffer. Each oocyte was individually transferred to a scintillation vial containing 5% sodium dodecyl sulfate (200 μl) for lysis. The radioactivity of each sample was measured using a liquid scintillation analyzer Tri-Carb 4910 TR (PerkinElmer). Oocytes that were injected with water instead of RNA were analyzed in parallel, representing the uptake of a drug by diffusion and/or endogenous permeation pathways. The resulting value represents the “background“ level of drug accumulation in oocytes (in-depth discussion in[22]). […]

[3] = D410A, 50 µM CQ, 1 h, mean ± SEM

Compound: CCN(CC)CCCC(C)Nc1ccnc2cc(Cl)ccc12 (stereo not drawn) [CQ, chloroquine]
- Activity at pH 4.5 ([1]; 50 µM CQ, 1 h, mean ± SEM): 1.38 ± 0.17 pmol h-1 oocyte-1
- Activity at pH 6.0 ([1]; 50 µM CQ, 1 h, mean ± SEM): 3.36 ± 0.45 pmol h-1 oocyte-1
- R-value ([1]; CQ transport at pH 4.5 / pH 6.0): 0.44 ± 0.07
- Activity at pH 4.5 [2, 3]: 2.38 ± 0.18 pmol h-1 oocyte-1
- Activity at pH 6.0 [2, 3]: 5.09 ± 0.24 pmol h-1 oocyte-1
- R-value ([2]; D410A, CQ transport at pH 4.5 / pH 6.0): 0.47 ± 0.06
- D410A transport activity pH 4.5 ([2]; pH 4.5, single replicates, Fig 1d left): 2.74 pmol oocyte-1 h-1 and 1.99 pmol oocyte-1 h-1 and 2.40 pmol oocyte-1 h-1
- D410A R-value ([2]; pH 4.5 vs pH 6.0, Fig 1d left): 0.60 and 0.35 and 0.47
- D410A transport activity pH 6.0 ([2]; pH 6.0, single replicates, Fig 1d left): 4.58 pmol oocyte-1 h-1 and 5.61 pmol oocyte-1 h-1 and 5.09 pmol oocyte-1 h-1
